In patent US20220289751A1, “COMPOUND HAVING KDM5 INHIBITORY ACTIVITY AND PHARMACEUTICAL USE THEREOF” (ONO PHARMACEUTICAL CO., LTD., priority 2019, published 2022):
Read-outs that look alike come from different tables or passages of the source.

Experiments:
[1] = Permeability in wild type MDCK cell lines (MDCK-WT); assay type: in vitro ADME; settings: dog, MDCK, pH 7.4, apical to basal, 10 μM test compound, read-out: MDCK-WT (Papp)
Experimental: Wild type MDCKII cells were seeded onto an apical chamber 3 days prior to running the assay at a density of 2.3×10^5 cells per well. The integrity of cell monolayers was evaluated by examining the permeability of lucifer yellow assay using a Spectramax Gemini XS with excitation and emission at 426 nm and 538 nm respectively. Permeation of Lucifer Yellow should be ≤10×10^−6 cm/s for the experimental data to be accepted. The cell monolayers were preincubated in transport buffer (HBSS with CaCl2 and MgCl2)+25 mM HEPES, adjust to pH 7.4) at 37° C. or more than 20 min. Transport experiment was initiated by adding test compound solution (10 μM) to the apical chamber. Samples were obtained from basal chamber at 60 min, followed by addition of ice-cold acetonitrile containing internal standard. LC-MS/MS analysis was conducted as specified below. Standard calibration samples were prepared using the same matrix and analysed in the same manner. [table] […] Papp(cm/s)=(dCB/dt)×VB/(A×CA) dCB/dt is the slope of the cumulative concentration in basal side versus time VB is the volume of the basal compartment A is the area of the membrane surface area CA is the initial concentration in apical side

KDM5A protein = target: T1, KDM5A protein (Homo sapiens, UniProt P29375); assay: Biochemical KDM5A inhibition assay (HTRF); settings: read-out: IC50 value
T1 construct: purchased BPS Bioscience 50110
T1 sequence (P29375 whole entry): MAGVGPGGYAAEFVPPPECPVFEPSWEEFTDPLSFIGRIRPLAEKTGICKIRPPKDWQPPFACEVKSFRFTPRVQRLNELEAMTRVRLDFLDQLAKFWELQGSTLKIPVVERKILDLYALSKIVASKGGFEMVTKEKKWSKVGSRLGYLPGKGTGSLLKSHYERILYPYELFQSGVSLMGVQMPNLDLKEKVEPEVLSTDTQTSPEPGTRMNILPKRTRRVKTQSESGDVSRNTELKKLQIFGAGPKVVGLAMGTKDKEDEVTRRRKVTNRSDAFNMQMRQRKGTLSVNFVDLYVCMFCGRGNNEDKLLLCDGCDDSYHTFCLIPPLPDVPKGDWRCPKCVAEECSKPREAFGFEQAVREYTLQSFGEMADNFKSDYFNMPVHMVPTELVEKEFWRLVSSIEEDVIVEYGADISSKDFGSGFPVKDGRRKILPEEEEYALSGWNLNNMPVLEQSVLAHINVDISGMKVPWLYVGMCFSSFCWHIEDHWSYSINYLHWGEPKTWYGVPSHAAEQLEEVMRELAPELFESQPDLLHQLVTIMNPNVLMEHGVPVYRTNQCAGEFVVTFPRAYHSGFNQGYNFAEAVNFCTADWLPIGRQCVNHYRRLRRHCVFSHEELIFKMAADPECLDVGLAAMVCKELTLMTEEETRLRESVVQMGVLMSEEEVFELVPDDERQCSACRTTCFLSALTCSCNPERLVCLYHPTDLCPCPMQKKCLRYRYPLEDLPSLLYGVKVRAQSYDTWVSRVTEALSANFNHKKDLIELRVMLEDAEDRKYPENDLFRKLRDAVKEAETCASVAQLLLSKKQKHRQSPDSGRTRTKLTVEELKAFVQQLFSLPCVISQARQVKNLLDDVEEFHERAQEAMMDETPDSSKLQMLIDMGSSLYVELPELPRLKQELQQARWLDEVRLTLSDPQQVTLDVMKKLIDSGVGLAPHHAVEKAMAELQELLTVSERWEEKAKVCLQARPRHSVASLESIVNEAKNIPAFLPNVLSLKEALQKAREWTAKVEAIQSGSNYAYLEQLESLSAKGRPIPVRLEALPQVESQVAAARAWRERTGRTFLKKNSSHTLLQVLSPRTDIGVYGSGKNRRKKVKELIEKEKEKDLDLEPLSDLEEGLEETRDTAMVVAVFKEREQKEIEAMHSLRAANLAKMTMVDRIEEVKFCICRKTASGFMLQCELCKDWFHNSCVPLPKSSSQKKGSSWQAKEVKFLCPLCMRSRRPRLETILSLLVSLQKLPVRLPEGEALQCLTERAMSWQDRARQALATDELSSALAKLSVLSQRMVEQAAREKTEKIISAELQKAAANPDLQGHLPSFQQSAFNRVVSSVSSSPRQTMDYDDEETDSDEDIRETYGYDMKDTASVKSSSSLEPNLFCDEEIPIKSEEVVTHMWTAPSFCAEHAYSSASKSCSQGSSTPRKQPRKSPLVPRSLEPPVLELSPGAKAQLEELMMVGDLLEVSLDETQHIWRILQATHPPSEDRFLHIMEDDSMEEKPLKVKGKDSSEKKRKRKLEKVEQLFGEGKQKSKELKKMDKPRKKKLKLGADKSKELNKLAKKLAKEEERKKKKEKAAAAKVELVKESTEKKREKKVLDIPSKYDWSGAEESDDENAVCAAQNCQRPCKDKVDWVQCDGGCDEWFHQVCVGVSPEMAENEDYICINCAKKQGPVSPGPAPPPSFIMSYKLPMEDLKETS
Experimental: Using 384-well white ProxiPlates (PerkinElmer), representative compounds were characterized for their inhibition of KDM5A using HTRF® technology (Cisbio Bioassays). Briefly, the test compounds, reference compounds, and DMSO control (typical compound concentration range 300 pM-10 μM, final assay concentration (FAC) of DMSO 0.5%) were added to 384-well plate by the Echo® acoustic dispensing platform (Labcyte). Three (3) μ1 of KDM5A protein (BPS Bioscience, Cat #50110)(10 or 20 nM FAC) in assay buffer (50 mM MES, 50 mM NaCl, 2 mM ascorbic acid, 0.01% v/v Tween 20, pH 6.5) was added to wells and plates were incubated for 10 minutes at room temperature. Then, 3 μl of biotin-labelled H3K4-me3 substrate (Anaspec Cat #AS-64357-1; 100 nM FAC), alpha-ketoglutaric acid ([…]) and Fe(II)SO4 (FAC 100 μM) in assay buffer was added and plates were incubated for 60 minutes at room temperature. The reaction was stopped with the addition of 6 μl of anti-H3-[…]-Eu(K) (Cisbio Bioassays Cat #61KA2KAE; 0.025 μg/ml FAC)+Streptavidin XL665 (Cisbio Bioassays Cat #610SAXLA; 0.5 μg/ml FAC) in HTRF detection buffer (Cisbio Bioassays Cat #62SDBRDD). The mixture was incubated for 90 minutes at room temperature before 340 nm excitation and measurement of dual emission at 620 nm and 665 nm. The raw data (a 665 nm and a 620 nm reading from each well) for individual assay plates were analyzed. The ratio of emissions was calculated using the following calculation: Ratio=(665 nm emission/620 nm emission)*10000. Using DMSO control (maximum response or 0% inhibition) and 1 μM reference control compound (minimum response or 100% inhibition), percentage inhibition values for each well were calculated using the median values of the minimum and maximum control wells and the following calculation: % Inhibition=(Well ratio-max control ratio)/(min control ratio-max control ratio)*100. Compound IC50 values were calculated from graphs of % inhibition plotted against compound concentration, using a four parameter curve fit.

| SMILES | Papp A→B at 60 min, 10 μM [1] [×10⁻⁶ cm/s] | IC50 (KDM5A protein; 20 nM enzyme concentration) [nM] | IC50 (KDM5A protein; * measured at 10 nM enzyme concentration) [nM] |
| --- | --- | --- | --- |
| CC(C)n1c(N2CC(c3ccccc3)C2)nn2c(-c3cnc[nH]3)cnc2c1=O [EXAMPLE 8, 7-(1H-imidazol-5-yl)-3-isopropyl-2-(3-phenylazetidin-1-yl)imidazo[2,1-f][1,2,4]triazin-4(3H)-one] | 23 | 40 | – |
| CC(C)c1c(-c2ccccc2)[nH]n2c(C#N)cnc2c1=O [EXAMPLE 95, 7-Isopropyl-8-oxo-6-phenyl-5,8-dihydroimidazo[1,2-b]pyridazine-3-carbonitrile] | 66 | 400 | – |
| CC(C)c1cc(C(=O)N2CC3(C2)CN(C(=O)C2CC2)C3C)n[nH]1 (single isomer, unassigned) [EXAMPLE 92, [2-(Cyclopropanecarbonyl)-3-methyl-2,6-diazaspiro[3.3]heptan-6-yl]-(5-isopropyl-1H-pyrazol-3-yl)methanone] | 8 | 600 | – |
| CC(C)c1cc(C(=O)N2CC3(CON(C(=O)C(C)(C)C)C3)C2)n[nH]1 [EXAMPLE 132, 1-[2-(5-Isopropyl-1H-pyrazole-3-carbonyl)-6-oxa-2,7-diazaspiro[3.4]octan-7-yl]-2,2-dimethyl-propan-1-one] | 19 | – | – |
| CC(C)c1cc(C(=O)N2CC3(C2)CN(C(=O)c2cccs2)C3)n[nH]1 [EXAMPLE 99, (5-Isopropyl-1H-pyrazol-3-yl)(6-(thiophene-2-carbonyl)-2,6-diazaspiro[3.3]heptan-2-yl)methanone] | 20 | – | – |
| CC(C)n1cnc(C(=O)N2CC3(C2)CN(C(=O)C2CC2)C3)c1 [EXAMPLE 81, (6-(Cyclopropanecarbonyl)-2,6-diazaspiro[3.3]heptan-2-yl)(1-isopropyl-1H-imidazol-4-yl)methanone] | – | 100 | – |
| CC(C)c1cc(C(=O)N2C[C@@H]3[C@H](C2)[C@H]3C(=O)C2CC2)n[nH]1 [EXAMPLE 94, ((1R,5S,6r)-6-(cyclopropanecarbonyl)-3-azabicyclo[3.1.0]hexan-3-yl)(5-isopropyl-1H-pyrazol-3-yl)methanone] | 68 | – | 1500 |
| CC(C)n1c(-c2cnn(CC3CC3)c2)nn2c(-c3cn[nH]c3)cnc2c1=O [EXAMPLE 20, 2-(1-(Cyclopropylmethyl)-1H-pyrazol-4-yl)-3-isopropyl-7-(1H-pyrazol-4-yl)imidazo[2,1-f][1,2,4]triazin-4(3H)-one] | 25 | 40 | – |
| CC(C)n1c(-c2ccc3c(ccn3C)c2)nn2c(-c3cn[nH]c3)cnc2c1=O [EXAMPLE 21, 3-Isopropyl-2-(1-methyl-1H-indol-5-yl)-7-(1H-pyrazol-4-yl)imidazo[2,1-f][1,2,4]triazin-4(3H)-one] | 10 | 40 | – |
| CC(C)n1c(-c2cccs2)nn2c(-c3cnc[nH]3)cnc2c1=O [EXAMPLE 26, 7-(1H-Imidazol-5-yl)-3-isopropyl-2-(thiophen-2-yl)imidazo[2,1-f][1,2,4]triazin-4(3H)-one] | 20 | 200 | – |
| CC(c1ccccc1)c1cc(C(=O)N2CC3(C2)CN(C(=O)C2CC2)C3)n[nH]1 (single isomer, unassigned) [EXAMPLE 89, (6-(Cyclopropanecarbonyl)-2,6-diazaspiro[3.3]heptan-2-yl)(5-(1-phenylethyl)-1H-pyrazol-3-yl)methanone] | 9 | – | – |
| CC(C)c1cc(C(=O)c2cnn3c(=O)c(C(C)C)c(-c4ccccc4)n(C)c23)n[nH]1 [EXAMPLE 68, 6-Isopropyl-3-(5-isopropyl-1H-pyrazole-3-carbonyl)-4-methyl-5-phenylpyrazolo[1,5-a]pyrimidin-7 (4H)-one] | – | 400 | – |
| CC(C)c1cc(C(=O)N2CC3(C2)CN(C(=O)c2nn(C)cc2F)C3)n[nH]1 [EXAMPLE 126, [2-(4-Fluoro-1-methyl-pyrazole-3-carbonyl)-2,6-diazaspiro[3.3]heptan-6-yl]-(5-isopropyl-1H-pyrazol-3-yl)methanone] | – | 8 | – |
| CC(=O)NCCn1cc(-c2nn3c(-c4c[nH]cn4)cnc3c(=O)n2C(C)C)cn1 [EXAMPLE 121, N-(2-(4-(7-(1H-Imidazol-4-yl)-3-isopropyl-4-oxo-3,4-dihydroimidazo[2,1-f][1,2,4]triazin-2-yl)-1H-pyrazol-1-yl)ethyl)acetamide] | – | 90 | – |
| CC(C)n1c(-c2cccs2)nn2c(-c3cn[nH]c3)cnc2c1=O [EXAMPLE 27, 3-Isopropyl-7-(1H-pyrazol-4-yl)-2-(thiophen-2-yl)imidazo[2,1-f][1,2,4]triazin-4(3H)-one] | – | 50 | – |
| CC(C)n1c(N(C)CCC2CCCO2)nn2c(-c3cn[nH]c3)cnc2c1=O (single isomer, unassigned) [EXAMPLE 62, 3-Isopropyl-2-(methyl(2-(tetrahydrofuran-2-yl)ethyl)amino)-7-(1H-pyrazol-4-yl)imidazo[2,1-f][1,2,4]triazin-4(3H)-one] | – | 1000 | – |
| CC(C)c1cc(C(=O)N2CC3(C2)CN(C(=O)C2(C)CC2)C3)n[nH]1 [EXAMPLE 96, (5-Isopropyl-1H-pyrazol-3-yl)(6-(1-methylcyclopropane-1-carbonyl)-2,6-diazaspiro[3.3]heptan-2-yl)methanone] | – | 30 | – |
| CCNC(=O)N1CC2(C1)CN(C(=O)c1cc(C(C)C)[nH]n1)C2 [EXAMPLE 41, N-Ethyl-6-(5-isopropyl-1H-pyrazole-3-carbonyl)-2,6-diazaspiro[3.3]heptane-2-carboxamide] | – | 30 | – |
| Cc1ccc(-n2cc(-c3cnc4c(=O)n(C(C)C)c(C)nn34)cn2)nc1 [EXAMPLE 67, 3-Isopropyl-2-methyl-7-(1-(5-methylpyridin-2-yl)-1H-pyrazol-4-yl)imidazo[2,1-f][1,2,4]triazin-4(3H)-one] | – | 2900 | – |
| O=C(c1cc(C2CCCCC2)[nH]n1)N1CC2(C1)CN(C(=O)C1CC1)C2 [EXAMPLE 73, (5-Cyclohexyl-1H-pyrazol-3-yl)(6-(cyclopropanecarbonyl)-2,6-diazaspiro[3.3]heptan-2-yl)methanone] | 16 | – | – |
| CC(C)n1c(-c2cnn(CC3CC3)c2)nn2c(-c3cnc[nH]3)cnc2c1=O [EXAMPLE 19, 2-(1-(Cyclopropylmethyl)-1H-pyrazol-4-yl)-7-(1H-imidazol-5-yl)-3-isopropylimidazo[2,1-f][1,2,4]triazin-4(3H)-one] | – | 30 | – |
| CC(=O)NCCn1cc(-c2nn3c(-c4cn[nH]c4)cnc3c(=O)n2C(C)C)cn1 [EXAMPLE 47, N-(2-(4-(3-isopropyl-4-oxo-7-(1H-pyrazol-4-yl)-3,4-dihydroimidazo[2,1-f][1,2,4]triazin-2-yl)-1H-pyrazol-1-yl)ethyl)acetamide] | – | 50 | – |
| CC(C)c1cc(C(=O)N2CC(NC(=O)C3CC3)C2)n[nH]1 [EXAMPLE 80, N-(1-(5-Isopropyl-1H-pyrazole-3-carbonyl)azetidin-3-yl)cyclopropanecarboxamide] | – | 200 | – |
| O=C(NC1CN(C(=O)c2cc(C3CC3)[nH]n2)C1)C1CC12CC2 (single isomer, unassigned) [EXAMPLE 104, N-(1-(5-cyclopropyl-1H-pyrazole-3-carbonyl)azetidin-3-yl)spiro[2.2]pentane-1-carboxamide] | 8 | – | – |
